Results published in ChEMBL document CHEMBL5365507, “New Horizons in Cancer Treatment: A Closer Look at Novel PI3Kα Inhibitors” (ACS Med Chem Lett, 2023).

Key:
[1] = biological target: T1, Phosphatidylinositol 4,5-bisphosphate 3-kinase catalytic subunit alpha isoform (Homo sapiens, UniProt P42336); experiment: Inhibition of PIK3CA (unknown origin) using diC8-PIP2 as substrate preincubated for 30 mins followed by substrate addition and measured after 60 mins by ADP-Glo assay
[2] = biological target: T1, Phosphatidylinositol 4,5-bisphosphate 3-kinase catalytic subunit alpha isoform; experiment: Inhibition of PIK3CA (unknown origin) expressed in MCF-10A cells incubated for 2 hrs by HTRF method; format: cell-based

T1 sequence (P42336 whole entry, canonical isoform): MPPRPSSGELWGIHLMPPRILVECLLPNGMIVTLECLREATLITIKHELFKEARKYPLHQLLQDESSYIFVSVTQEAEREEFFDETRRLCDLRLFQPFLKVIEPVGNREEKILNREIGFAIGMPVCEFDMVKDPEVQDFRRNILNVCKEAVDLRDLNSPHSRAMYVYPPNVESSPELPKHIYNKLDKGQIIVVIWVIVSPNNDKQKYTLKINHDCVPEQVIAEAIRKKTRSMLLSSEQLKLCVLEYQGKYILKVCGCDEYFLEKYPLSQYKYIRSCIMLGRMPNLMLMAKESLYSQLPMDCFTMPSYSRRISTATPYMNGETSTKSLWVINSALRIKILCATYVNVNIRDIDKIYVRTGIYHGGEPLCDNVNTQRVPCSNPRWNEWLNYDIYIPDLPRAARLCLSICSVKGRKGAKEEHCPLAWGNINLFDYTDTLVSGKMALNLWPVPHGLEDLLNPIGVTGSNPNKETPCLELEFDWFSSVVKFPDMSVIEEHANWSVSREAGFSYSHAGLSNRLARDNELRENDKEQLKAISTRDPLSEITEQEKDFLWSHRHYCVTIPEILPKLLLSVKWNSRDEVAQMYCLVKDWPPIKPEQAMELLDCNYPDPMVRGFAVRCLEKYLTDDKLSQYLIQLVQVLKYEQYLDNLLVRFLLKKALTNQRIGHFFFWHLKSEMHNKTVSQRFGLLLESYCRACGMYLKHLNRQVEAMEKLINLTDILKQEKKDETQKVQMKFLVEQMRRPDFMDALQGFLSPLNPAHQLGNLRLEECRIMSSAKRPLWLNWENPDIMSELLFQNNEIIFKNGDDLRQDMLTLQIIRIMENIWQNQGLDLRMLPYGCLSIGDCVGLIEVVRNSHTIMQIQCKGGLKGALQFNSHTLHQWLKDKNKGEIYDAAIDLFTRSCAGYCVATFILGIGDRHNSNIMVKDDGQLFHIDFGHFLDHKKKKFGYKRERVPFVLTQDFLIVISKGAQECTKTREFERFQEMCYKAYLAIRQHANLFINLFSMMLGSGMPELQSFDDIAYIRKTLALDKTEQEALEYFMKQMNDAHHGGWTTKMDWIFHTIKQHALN

SMILES | IC50 [1] [nM] | IC50 [2] [nM]
Cc1ccccc1Nc1ncc(C(=O)NCC2CC(F)(F)C2)cc1NC(=O)c1cc(F)cc(C(F)(F)F)c1 | 100 | 1000
Cc1ccccc1Nc1ncc(C(=O)NCc2ccnn2C)cc1NC(=O)c1csc2ccccc12 | 100 | 1000
Cc1ccccc1Nc1ncc(C(=O)NC2CC(F)(F)C2)cc1NC(=O)c1cc(F)cc(C(F)(F)F)c1 | 100 | 1000
Cc1ccccc1Nc1ncc(C(=O)NC2CS(=O)(=O)C2)cc1NC(=O)c1cc(F)cc(C(F)(F)F)c1 | ≤ 100 | ≤ 1000
Cc1ccccc1Nc1ncc(C(=O)NCc2ccc(Cl)cc2)cc1NC(=O)c1csc2ccccc12 | 100 | 1000
Cc1ccccc1Nc1ncc(C(=O)NCc2ccn(C)n2)cc1NC(=O)c1cc(F)cc(C(F)(F)F)c1 | 100 | 1000
Cc1ccccc1Nc1ncc(C(=O)NCc2nccs2)cc1NC(=O)c1csc2ccccc12 | ≤ 100 | 5000
Cc1ccccc1Nc1ncc(-c2cncc(C#N)c2)cc1NC(=O)c1cc(F)cc(C(F)(F)F)c1 | 100 | 1000
Cc1ccccc1Nc1ncc(C(=O)Nc2ccncc2)cc1NC(=O)c1cc(F)cc(C(F)(F)F)c1 | 100 | ≤ 1000
Cc1ccccc1Nc1ncc(C(=O)NC2C[S+]([O-])C2)cc1NC(=O)c1csc2ccccc12 (centres undefined) | ≤ 100 | 1000
Cc1ccccc1Nc1ncc(C(=O)NC2CS(=O)(=O)C2)cc1NC(=O)c1csc2ccccc12 | ≤ 100 | 1000
Cc1ccccc1Nc1ncc(C(=O)NCc2ccnn2C)cc1NC(=O)c1cc(F)cc(C(F)(F)F)c1 | 100 | 1000
